Source: PMC9560169, “The novel visual cycle inhibitor (±)-RPE65-61 protects retinal photoreceptors from light-induced degeneration” (PLoS ONE, 2022)

Biological target: T1, RPE65 (Gallus gallus, UniProt Q9YGX2)
T1 construct: purified chicken recombinant RPE65
T1 sequence (Q9YGX2 1-533): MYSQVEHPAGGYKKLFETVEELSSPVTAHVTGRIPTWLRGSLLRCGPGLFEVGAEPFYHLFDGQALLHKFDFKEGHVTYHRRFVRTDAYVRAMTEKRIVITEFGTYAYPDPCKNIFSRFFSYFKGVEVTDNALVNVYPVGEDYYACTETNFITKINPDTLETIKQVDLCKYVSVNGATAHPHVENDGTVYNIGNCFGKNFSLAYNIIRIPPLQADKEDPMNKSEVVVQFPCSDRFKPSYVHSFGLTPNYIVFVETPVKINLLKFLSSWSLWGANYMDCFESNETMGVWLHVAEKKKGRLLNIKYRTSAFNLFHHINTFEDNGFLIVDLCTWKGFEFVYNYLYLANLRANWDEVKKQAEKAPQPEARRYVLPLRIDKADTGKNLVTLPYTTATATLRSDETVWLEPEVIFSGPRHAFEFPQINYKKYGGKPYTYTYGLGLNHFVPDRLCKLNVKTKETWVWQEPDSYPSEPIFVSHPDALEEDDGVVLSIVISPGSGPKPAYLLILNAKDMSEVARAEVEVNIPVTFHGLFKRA
Assay: liposome-based isomerohydrolase assay with all-trans-retinyl palmitate, HPLC of 11-cis-retinol, Lineweaver-Burk
Format: biochemical

Question: For `N=S(=O)(CCN)c1cccc(OCC2CCCCC2)c1` (racemic) [(±)-9, (±)-(2-aminoethyl)(3-(cyclohexylmethoxy)phenyl)(imino)-ƛ^6-sulfanone], which Ki is on record?
Answer: 119 ± 11 nM
